Assay results reported in article PMC7179183, “Design of Biphenyl-Substituted Diarylpyrimidines with a Cyanomethyl Linker as HIV-1 NNRTIs via a Molecular Hybridization Strategy” (Molecules, 2020).

Key:
[1] = test system: MT-4 cells; assay: Cytotoxicity in uninfected MT-4 cells, MTT method; type: cell-based; conditions: uninfected MT-4 cells; viability reduced by 50%
Method: (§1) The newly synthesized compounds were evaluated for their potency and cytotoxicity against the WT HIV-1 (strain IIIB) in MT-4 cells using the MTT method. The biological evaluation results are represented as EC50 values (anti-HIV-1 activity), CC50 values (cytotoxicity), and SI values (selectivity index, CC50/EC50 ratio).

[2] = test system: F227L + V106A double RT mutant HIV-1 strain; assay: Anti-HIV-1 activity against F227L + V106A double mutant strain in MT-4 cells; type: cell-based; conditions: MT-4 cells; read-out: EC50 F227L + V106A
[3] = test system: K103N mutant HIV-1 strain; assay: Anti-HIV-1 activity against K103N mutant strain in MT-4 cells; type: cell-based; conditions: MT-4 cells; read-out: EC50 K103N
[4] = test system: E138K mutant HIV-1 strain; assay: Anti-HIV-1 activity against E138K mutant strain in MT-4 cells; type: cell-based; conditions: MT-4 cells; read-out: EC50 E138K
[5] = test system: Y181C mutant HIV-1 strain; assay: Anti-HIV-1 activity against Y181C mutant strain in MT-4 cells; type: cell-based; conditions: MT-4 cells; read-out: EC50 Y181C
[6] = test system: WT HIV-1 (strain IIIB); assay: microbe, parasite or virus in culture; type: cell-based; conditions: MT-4 cells; protection against virus-induced cytopathicity by 50%; mean of at least three experiments; read-out: EC50 HIV-1 IIIB
Method: as §1

[7] = test system: K103N + Y181C double RT mutant HIV-1 strain; assay: Anti-HIV-1 activity against K103N + Y181C double mutant strain in MT-4 cells; type: cell-based; conditions: MT-4 cells; read-out: EC50 K103N + Y181C
[8] = test system: L100I mutant HIV-1 strain; assay: Anti-HIV-1 activity against L100I mutant strain in MT-4 cells; type: cell-based; conditions: MT-4 cells; read-out: EC50 L100I
[9] = test system: Y188L mutant HIV-1 strain; assay: Anti-HIV-1 activity against Y188L mutant strain in MT-4 cells; type: cell-based; conditions: MT-4 cells; read-out: EC50 Y188L
[10] = molecular target: WT HIV-1 RT (Human immunodeficiency virus type 1 group M subtype B, UniProt P03366); assay: Enzymatic assay against WT HIV-1 RT; conditions: read-out: IC50 WT HIV-1 RT polymerase activity
Method: The enzymatic assay against WT HIV-1 RT was conducted for most compounds (Table 2).

## N#Cc1ccc(Nc2nccc(C(C#N)c3ccc(-c4ccccc4)cc3)n2)cc1 (racemic) [Compound 10a, (±)-4-((4-([1,1′-biphenyl]-4-yl(cyano)methyl)pyrimidin-2-yl)amino)benzonitrile]
[1]
  CC50: 30.8 ± 8.57 µM
[2]
  EC50: > 30.8 µM
[3]
  EC50: > 30.8 µM
[4]
  EC50: ≥ 12.6 µM
[5]
  EC50: > 30.8 µM
[6]
  EC50: 2.9 ± 1.89 µM
[7]
  EC50: > 30.8 µM
[8]
  EC50: > 30.8 µM
[9]
  EC50: > 30.8 µM

## N#Cc1ccc(Nc2nccc(C(C#N)c3ccc(-c4ccccc4)c(F)c3)n2)cc1 (racemic) [Compound 10b, (±)-4-((4-(cyano(2-fluoro-[1,1′-biphenyl]-4-yl)methyl)pyrimidin-2-yl)amino)benzonitrile]
[1]
  CC50: 27.3 ± 5.85 µM
[2]
  EC50: > 27.3 µM
[3]
  EC50: > 27.3 µM
[4]
  EC50: 9.29 ± 1.37 µM
[10]
  IC50: 0.46 ± 0.162 µM
[5]
  EC50: > 27.3 µM
[6]
  EC50: 4.96 ± 0.56 µM
[7]
  EC50: > 27.3 µM
[8]
  EC50: ≥ 27.3 µM
[9]
  EC50: > 27.3 µM

## N#Cc1ccc(Nc2nccc(C(C#N)c3ccc(-c4ccccc4)cc3F)n2)cc1 (racemic) [Compound 10c, (±)-4-((4-(cyano(3-fluoro-[1,1′-biphenyl]-4-yl)methyl)pyrimidin-2-yl)amino)benzonitrile]
[1]
  CC50: 23.8 ± 4.48 µM
[2]
  EC50: > 23.8 µM
[3]
  EC50: 10.3 ± 0.85 µM
[4]
  EC50: 1.69 ± 0.17 µM
[10]
  IC50: 0.062 ± 0.024 µM
[5]
  EC50: 6.37 ± 0.78 µM
[6]
  EC50: 0.33 ± 0.07 µM
[7]
  EC50: > 23.8 µM
[8]
  EC50: ≥ 10.3 µM
[9]
  EC50: > 23.8 µM

## Cc1ccccc1-c1ccc(C(C#N)c2ccnc(Nc3ccc(C#N)cc3)n2)c(F)c1 (racemic) [Compound 10d, (±)-4-((4-(cyano(3-fluoro-2′-methyl-[1,1′-biphenyl]-4-yl)methyl)pyrimidin-2-yl)amino)benzonitrile]
[1]
  CC50: 30.1 ± 1.94 µM
[2]
  EC50: > 30.1 µM
[3]
  EC50: 8.14 ± 1.82 µM
[4]
  EC50: 2.5 ± 0.33 µM
[10]
  IC50: 0.074 ± 0.024 µM
[5]
  EC50: 4.89 ± 1.07 µM
[6]
  EC50: 0.43 ± 0.21 µM
[7]
  EC50: > 30.1 µM
[8]
  EC50: 3.67 ± 0.54 µM
[9]
  EC50: > 30.1 µM

## Cc1cccc(-c2ccc(C(C#N)c3ccnc(Nc4ccc(C#N)cc4)n3)c(F)c2)c1 (racemic) [Compound 10e, (±)-4-((4-(cyano(3-fluoro-3′-methyl-[1,1′-biphenyl]-4-yl)methyl)pyrimidin-2-yl)amino)benzonitrile]
[1]
  CC50: 26.9 ± 3.78 µM
[2]
  EC50: > 26.9 µM
[3]
  EC50: > 26.9 µM
[4]
  EC50: 3.59 ± 1.03 µM
[10]
  IC50: 0.101 ± 0.059 µM
[5]
  EC50: > 26.9 µM
[6]
  EC50: 0.43 ± 0.07 µM
[7]
  EC50: > 26.9 µM
[8]
  EC50: 9.14 ± 3.61 µM
[9]
  EC50: > 26.9 µM

## Cc1ccc(-c2ccc(C(C#N)c3ccnc(Nc4ccc(C#N)cc4)n3)c(F)c2)cc1 (racemic) [Compound 10f, (±)-4-((4-(cyano(3-fluoro-4′-methyl-[1,1′-biphenyl]-4-yl)methyl)pyrimidin-2-yl)amino)benzonitrile]
[1]
  CC50: 30.9 ± 2.76 µM
[2]
  EC50: > 30.9 µM
[3]
  EC50: 8.08 ± 2.74 µM
[4]
  EC50: 2.55 ± 0.17 µM
[10]
  IC50: 0.093 ± 0.051 µM
[5]
  EC50: 9.27 ± 1.14 µM
[6]
  EC50: 0.43 ± 0.09 µM
[7]
  EC50: > 30.9 µM
[8]
  EC50: 6.12 ± 1.62 µM
[9]
  EC50: > 30.9 µM

## COc1ccccc1-c1ccc(C(C#N)c2ccnc(Nc3ccc(C#N)cc3)n2)c(F)c1 (racemic) [Compound 10g, (±)-4-((4-(cyano(3-fluoro-2′-methoxy-[1,1′-biphenyl]-4-yl)methyl)pyrimidin-2-yl)amino)benzonitrile]
[1]
  CC50: 30.1 ± 2.31 µM
[2]
  EC50: > 30 µM
[3]
  EC50: 9.78 ± 1.6 µM
[4]
  EC50: 3.66 ± 0.19 µM
[10]
  IC50: 0.233 ± 0.125 µM
[5]
  EC50: 7.79 ± 1.67 µM
[6]
  EC50: 0.61 ± 0.16 µM
[7]
  EC50: > 30 µM
[8]
  EC50: 4.27 ± 0.46 µM
[9]
  EC50: > 30 µM

## COc1cccc(-c2ccc(C(C#N)c3ccnc(Nc4ccc(C#N)cc4)n3)c(F)c2)c1 (racemic) [Compound 10h, (±)-4-((4-(cyano(3-fluoro-3′-methoxy-[1,1′-biphenyl]-4-yl)methyl)pyrimidin-2-yl)amino)benzonitrile]
[1]
  CC50: 30.7 ± 2.09 µM
[2]
  EC50: > 30.7 µM
[3]
  EC50: > 30.7 µM
[4]
  EC50: 6.16 ± 1.47 µM
[10]
  IC50: 0.219 ± 0.171 µM
[5]
  EC50: > 30.7 µM
[6]
  EC50: 1.5 ± 0.24 µM
[7]
  EC50: > 30.7 µM
[8]
  EC50: 8.57 ± 1.26 µM
[9]
  EC50: > 30.7 µM

## COc1ccc(-c2ccc(C(C#N)c3ccnc(Nc4ccc(C#N)cc4)n3)c(F)c2)cc1 (racemic) [Compound 10i, (±)-4-((4-(cyano(3-fluoro-4′-methoxy-[1,1′-biphenyl]-4-yl)methyl)pyrimidin-2-yl)amino)benzonitrile]
[1]
  CC50: 183 µM
[2]
  EC50: 52.5 µM
[3]
  EC50: 27 ± 3 µM
[4]
  EC50: 5.51 ± 1.06 µM
[5]
  EC50: 8.57 ± 1.21 µM
[6]
  EC50: 0.51 ± 0.42 µM
[7]
  EC50: > 183 µM
[8]
  EC50: 31.6 ± 7.35 µM
[9]
  EC50: 50.1 ± 6.52 µM

## N#Cc1ccc(Nc2nccc(C(C#N)c3ccc(-c4ccccc4F)cc3F)n2)cc1 (racemic) [Compound 10j, (±)-4-((4-(cyano(2′,3-difluoro-[1,1′-biphenyl]-4-yl)methyl)pyrimidin-2-yl)amino)benzonitrile]
[1]
  CC50: 27.9 ± 3.56 µM
[2]
  EC50: > 27.9 µM
[3]
  EC50: 3.93 ± 0.65 µM
[4]
  EC50: 1.03 ± 0.17 µM
[10]
  IC50: 0.058 ± 0.032 µM
[5]
  EC50: 3.4 ± 0.48 µM
[6]
  EC50: 0.21 ± 0.05 µM
[7]
  EC50: > 27.9 µM
[8]
  EC50: 6.06 ± 2.46 µM
[9]
  EC50: > 27.9 µM

## N#Cc1ccc(Nc2nccc(C(C#N)c3ccc(-c4ccc(F)cc4)cc3F)n2)cc1 (racemic) [Compound 10l, (±)-4-((4-(cyano(3,4′-difluoro-[1,1′-biphenyl]-4-yl)methyl)pyrimidin-2-yl)amino)benzonitrile]
[1]
  CC50: 25.6 ± 3.58 µM
[2]
  EC50: > 25.6 µM
[3]
  EC50: 6.87 ± 1.17 µM
[4]
  EC50: 0.98 ± 0.13 µM
[5]
  EC50: 5.1 ± 0.51 µM
[6]
  EC50: 0.18 ± 0.16 µM
[7]
  EC50: > 25.6 µM
[8]
  EC50: 6.9 ± 1.76 µM
[9]
  EC50: > 25.6 µM

## N#Cc1ccc(Nc2nccc(C(C#N)c3ccc(-c4cccc(Cl)c4)cc3F)n2)cc1 (racemic) [Compound 10n, (±)-4-((4-((3′-chloro-3-fluoro-[1,1′-biphenyl]-4-yl)(cyano)methyl)pyrimidin-2-yl)amino)benzonitrile]
[1]
  CC50: 27.6 ± 4.05 µM
[3]
  EC50: 7.2 ± 0.89 µM
[4]
  EC50: 2.67 ± 0.21 µM
[10]
  IC50: 0.171 ± 0.132 µM
[5]
  EC50: 9.19 ± 2.05 µM
[6]
  EC50: 0.39 ± 0.1 µM
[7]
  EC50: > 27.6 µM
[8]
  EC50: 8.31 ± 1.2 µM
[9]
  EC50: > 27.6 µM

## N#Cc1ccc(Nc2nccc(C(C#N)c3ccc(-c4ccc(Cl)cc4)cc3F)n2)cc1 (racemic) [Compound 10o, (±)-4-((4-((4′-chloro-3-fluoro-[1,1′-biphenyl]-4-yl)(cyano)methyl)pyrimidin-2-yl)amino)benzonitrile]
[1]
  CC50: 27.5 ± 7.3 µM
[2]
  EC50: > 27.5 µM
[3]
  EC50: 7.32 ± 0.87 µM
[4]
  EC50: 1.5 ± 0.28 µM
[5]
  EC50: 7.49 ± 1.64 µM
[6]
  EC50: 0.18 ± 0.14 µM
[7]
  EC50: > 27.5 µM
[8]
  EC50: 5.28 ± 1.29 µM
[9]
  EC50: > 27.5 µM

## N#Cc1ccc(Nc2nccc(C(C#N)c3ccc(-c4ccc(C#N)cc4)cc3F)n2)cc1 (racemic) [Compound 10p, (±)-4′-(cyano(2-((4-cyanophenyl)amino)pyrimidin-4-yl)methyl)-3′-fluoro-[1,1′-biphenyl]-4-carbonitrile]
[1]
  CC50: 36.4 µM
[3]
  EC50: 0.9 ± 0.27 µM
[4]
  EC50: 0.17 ± 0.03 µM
[10]
  IC50: 0.059 ± 0.034 µM
[5]
  EC50: 0.87 ± 0.23 µM
[6]
  EC50: 0.027 ± 0.015 µM
[7]
  EC50: > 36.4 µM
[8]
  EC50: 1.21 ± 0.21 µM
[9]
  EC50: 9.81 ± 1.3 µM
